# Where a SMILES comes first, the peptide text is derived from it.
# Tests used:
# [1] = target: T1, [Ile931]β′-RNAP holoenzyme (Escherichia coli, UniProt P0A8T7, T931I); assay: Transcription assays with MccJ25-resistant RNAP derivative; format: biochemical
# T1 construct: hexahistidine (C); made in house; host or cells: E. coli strain 397c (rpoC ts397) transformed with a pRL663 derivative
# Description: (§1) MccJ25 interferes with a process common to both abortive initiation and elongation—i.e., NTP uptake, phosphodiester-bond formation, or translocation.
# RNAP holoenzyme was prepared from, strain XE54/pREII-NHα (thi pREII-NHα; Niu et al., (1996) Cell 87, 1123-1134) using metal-ion affinity chromatography and ion-exchange chromatography (Id.). (Ile931]β′-RNAP holoenzyme was prepared from strain 397c [rpoC^ts397 argG thi lac λcI857h80St68dlac^+); Christie et al., (1996) J. Bacteriol. 178, 6991-6993) transformed with a pRL663 derivative encoding [Ile931]β′-RNAP (constructed using site-directed mutagenesis (QuikChange Site-Directed Mutagenesis Kit; Stratagene, Inc).) using identical procedures. Yields typically were 6 mg. Purities typically were >95%.
# Following 15 min at 37° C., 0.5 μl 1 mg/ml heparin, was added, and, following a further 2 min at 37° C., RNA synthesis was initiated by addition of 2 μl 5 mM ApA and 125 μM (or 250 jiM, 500 μM, and 1 mM) each of [α-^32P]UTP (0.6 Bq/fmol), ATP, CTP, GTP. […] Products were heated 10 min at 90° C., resolved by urea-PAGE (Sambrook and Russell (2001). Molecular Cloning: A Laboratory Manual (Cold Spring Harbor, N.Y., Cold Spring Harbor Laboratory)), and quantified using an x/y storage-phosphor scanner (Storm 860; Molecular Dynamics, Inc.). […]
# [2] = target: T2, RNAP holoenzyme (Escherichia coli, UniProt P0A8T7); assay: Fluorescence-detected abortive initiation assays; format: biochemical; conditions: iterative tri- and tetranucleotide synthesis
# T2 construct: RNAP holoenzyme was prepared from, strain XE54/pREII-NHα; made in house; host or cells: E. coli strain XE54/pREII-NHα
# Description: Following 15 min at 37° C. 0.5 μl mg/ml heparin was added, and, following a further 2 min at 37° C., 1 μl of 0.25-5 mM (y-AmNS)UTP (Molecular Probes, Inc.) was added, and reaction mixtures were transferred to sub-micro fluorometer cuvettes (Starna Cells, Inc.). Following 2 min at 37° C., RNA synthesis was initiated by addition of 2.5 μl 10 mM ApA, and fluorescence emission intensity was monitored 5 min at 37° C. [excitation wavelength=360 nm and emission wavelength=500 nm; excitation and emission slit widths=4 nm; QuantaMaster QM1 spectrofluororaeter (PTI, Inc).]. The quantity of UMP incorporated into RINA was determined from the quantity of (γ−AmNS)UTP consumed, which, in turn, was calculated as follows (Schlageck et al. 1979): (γ−AmNS)UTPconsumed=[(γ−AmNS)UTP0](Ft−F0)/(12.4×F0) where (γ−AmNS)UTP0 is the quantity of (γ−AmNS)UTP at time 0, F0 is the fluorescence emission intensity at time 0, and Ft is the fluorescence emission intensity at time t. Data were fit to full-competitive, partial-competitive, full-noncompetitive, partial-noncompetitive, full-uncompetitive, partial-uncompetitive, full-mixed, and partial-mixed models of inhibition as in the preceding section.
# [3] = test system: Gram-negative bacterial species, including E. coli; conditions: Salomon and Farias (1992); cited from earlier work
# [4] = target: T2, RNAP holoenzyme; assay: Transcription assays (abortive initiation and elongation, lacUV5 promoter); format: biochemical
# Description: as §1
# Following 15 min at 37° C., 0.5 μl 1 mg/ml heparin, was added, and, following a further 2 min at 37° C., RNA synthesis was initiated by addition of 2 μl 5 mM ApA and 125 μM (or 250 jiM, 500 μM, and 1 mM) each of [α-^32P]UTP (0.6 Bq/fmol), ATP, CTP, GTP. Following 5 min at 37° C., reactions were terminated by addition of 10 μl 80% formamide, 10 mM EDTA, 0.04% bromophenol blue, and 0.04% xylene cyanol. Products were heated 10 min at 90° C., resolved by urea-PAGE (Sambrook and Russell (2001). Molecular Cloning: A Laboratory Manual (Cold Spring Harbor, N.Y., Cold Spring Harbor Laboratory)), and quantified using an x/y storage-phosphor scanner (Storm 860; Molecular Dynamics, Inc.). Data were fit to full-competitive, partial-competitive, full-noncompetitive, partial-noncompetitive, full-uncompetitive, partial-uncompetitive, full-mixed, and partial-mixed models of inhibition using the Fit-To-Model feature of the SigmaPlot Enzyme Kinetics Module (SPSS, Inc.).
# [5] = test system: RNAP; assay: Cross-resistance with rifampicin; conditions: unpublished data
# [6] = MccJ25 at 1, 10, or 100 μM, 5 min at 37° C.
smiles,measurement,setting,value
"CC[C@H](C)[C@H](NC(=O)CNC(=O)[C@@H](NC(=O)[C@H](Cc1ccccc1)NC(=O)[C@H](Cc1ccc(O)cc1)NC(=O)[C@@H]1CCC(=O)NCC(=O)NCC(=O)N[C@@H](C)C(=O)NCC(=O)N[C@@H](Cc2c[nH]cn2)C(=O)N[C@@H](C(C)C)C(=O)N2CCC[C@H]2C(=O)N1)C(C)C)C(=O)NCC(=O)N[C@H](C(=O)N1CCC[C@H]1C(=O)N[C@H](C(=O)N[C@@H](CO)C(=O)N[C@@H](Cc1ccccc1)C(=O)N[C@@H](Cc1ccc(O)cc1)C(=O)NCC(=O)O)[C@@H](C)CC)[C@@H](C)O [MccJ25] (HELM PEPTIDE1{G.G.A.G.H.V.P.E.Y.F.V.G.I.G.T.P.I.S.F.Y.G}$PEPTIDE1,PEPTIDE1,1:R1-8:R3$$$V2.0)",inhibition of transcription upon substitution of residue 931 of the RNAP β′ subunit (Thr931→Ile),[1],overcome completely
same,mode of inhibition,[2],partial-competitive
same,bacteriocidal activity,[3],exhibits bacteriocidal activity
same,inhibition of formation of abortive products (7 nt and 8 nt RNA species),[4]; [6],inhibits
same,inhibition of formation of the full-length product (26 nt RNA species),[4]; [6],inhibits
same,NTP-concentration dependence of inhibition,"[4]; NTP 12.5, 25, 50 and 100 μM",NTP-concentration-dependent
same,mode of inhibition,"[4]; with respect to NTPs, 7-mer and 8-mer abortive products",partial competitive
same,cross-resistance with rifampicin,[5],do not exhibit cross-resistance

# From patent US8575306B2, “Target and method for inhibition of bacterial RNA polymerase” (Rutgers, The State University of New Jersey, priority 2002, dated 2013)
